Test results: patent US20090068290A1, “BIFEPRUNOX DOSES FOR TREATING SCHIZOPHRENIA” (priority 2006, published 2009)

Assays:
Format in all cases: in vivo, human
[1] = system: adult subjects with schizophrenia; assay: PANSS positive symptom subscale score, Clinical Study Three; settings: Olanzapine 15 mg, LOCF, ITT
From the text: SECONDARY OBJECTIVES To assess the efficacy of bifeprunox in treating schizophrenia using the Positive Symptom sub-scale score of the PANSS, the Negative Symptom sub-scale score of the PANSS, the General Psychopathology sub-scale of the PANSS, Brief Psychiatric Rating Scale (BPRS) total score derived from the PANSS, BPRS psychosis score derived from the PANSS, the Clinical Global Impression Severity of Illness score (CGI-S), the Clinical Global Impression Improvement score (CGI-I), CGI-I responder rate, PANSS responder rate based on the PANSS total score, Calgary Depression Scale for Schizophrenia (CDSS), and Subject Satisfaction rating.
There were four treatment arms in this study, approximately 144 subjects per arm. […] After completing the Single-Blind Placebo Lead-in Period of at least three days, bifeprunox-treated subjects were titrated from 0.25 mg up to 20 mg/day or 30 mg/day according to a standardized titration scheme over a seven- or eight-day period, respectively. When the assigned dose was reached, subjects were maintained at that dose for the remainder of the six week treatment period. […] Subjects were hospitalized (if not already inpatients) after eligibility for study entry was verified, starting from the Screening Visit until at least 10 days after Baseline. Subjects could be hospitalized longer than 10 days if considered medically necessary by the Investigator. Rating scale assessments for efficacy and abnormal movement disorders were done weekly except for Week 5. […] Subject satisfaction with study medication was assessed at Week 6.

[2] = system: adult subjects with schizophrenia; assay: CGI responder rate, Clinical Study Three; settings: LOCF
From the text: CLINICAL STUDY THREE: A CGI responder is defined as a subject who is categorized as “very much improved” or “much improved” on the CGI Improvement scale. […] No notable differences were observed between the placebo group and either of the two bifeprunox dose groups.

[3] = system: adult subjects with schizophrenia; assay: BPRS total score, Clinical Study Two; settings: LOCF; for Change from Baseline in BPRS Total Score, Mean (SD) / Change from Baseline in BPRS Total Score, Median: Risperidone 6 mg, ITT population
Description: Rating scale assessments were performed weekly, except for week 5, to measure the change from baseline to endpoint of the PANSS total score. Other assessments included: PANSS positive symptom subscale score, PANSS negative symptom subscale score, PANSS general pschopathology subscale score, BPRS total score, BPRS psychosis score, the CGI-S score, the CGI-I score, responder rates based on the PANSS total score, and the Calgary Depression Scale for Schizophrenia (CDSS). […]
Subjects who completed this study had the option to continue in the long-term. […] Blood samples were also obtained at Screening/Baseline, Week 3, and Week 6 for clinical laboratory assessments.

[4] = system: adult subjects with schizophrenia; assay: PANSS negative subscale score, Clinical Study One; settings: Risperidone 6 mg, ITT
Description: (§1) There were five treatment groups in this study. […] Study medication was administered once daily. After Baseline measurements were performed, the titration phase was begun. Bifeprunox treated subjects were titrated up to 5 mg, 10 mg or 20 mg according to a standardized titration schedule (Day 1: 0.125 mg, Day 2: 0.25 mg, Day 3: 0.5 mg, Day 4: 1.0 mg, Day 5: 2.0 mg, Day 6: 5.0 mg, Day 7: 10.0 mg, Day 8: 20 mg). When the assigned dose was reached, subjects were maintained at that dose for the remainder of the six-week treatment period.
(§2) The change in the Positive and Negative Symptom Scale (PANSS) total score, from baseline to endpoint, was the primary outcome measure. Secondary efficacy measures included: PANSS positive, PANSS negative, PANSS general psychopathology (GPP) score, PANSS-derived Brief Psychiatric Rating Scale (BPRS) score, Clinical Global Impressions-Severity of Illness (CGI-S), CGI-Improvement (CGI-I) scores, and responder rates. Safety and tolerability evaluations included extrapyramidal symptoms (EPS), weight gain, lipid profile, and serum prolactin.

[5] = system: adult subjects with schizophrenia; assay: BPRS total score, Clinical Study One; settings: Risperidone 6 mg, ITT population
Description: as §1, §2

[6] = Body weight, Clinical Study One; settings: Risperidone 6 mg
Description: Statistical testing of the change from Baseline in weight was performed using similar methodology to that used for the secondary efficacy parameters (an ANCOVA model with factors for treatment and weight at Baseline). Pairwise comparisons of the bifeprunox treatment groups versus placebo were all statistically significant (bifeprunox 5 mg [p=0.025], bifeprunox 10 mg [p=0.009] and bifeprunox 20 mg [p=0.031] for the difference between bifeprunox and placebo mean change from Baseline in weight at Endpoint.

## Cc1cc2c(s1)Nc1ccccc1N=C2N1CCN(C)CC1 [Olanzapine, olanzapine, reference compound]
[1]; Week 1
  Change from Baseline in PANSS Positive Symptom Subscale Score, Mean (SD): −3.0 (3.3)
  Change from Baseline in PANSS Positive Symptom Subscale Score, Median: −2
[1]; Week 2
  Change from Baseline in PANSS Positive Symptom Subscale Score, Mean (SD): −4.9 (4.0)
  Change from Baseline in PANSS Positive Symptom Subscale Score, Median: −5
[1]; Week 3
  Change from Baseline in PANSS Positive Symptom Subscale Score, Mean (SD): −6.0 (4.9)
  Change from Baseline in PANSS Positive Symptom Subscale Score, Median: −6
[1]; Week 4
  Change from Baseline in PANSS Positive Symptom Subscale Score, Mean (SD): −6.4 (5.4)
  Change from Baseline in PANSS Positive Symptom Subscale Score, Median: −7
[1]; Week 6/Endpoint
  Change from Baseline in PANSS Positive Symptom Subscale Score, Mean (SD): −7.0 (5.8)
  Change from Baseline in PANSS Positive Symptom Subscale Score, Median: −7
[2]; 15 mg, Week 6/Endpoint
  CGI Responder No, %: 54%
  CGI Responder Yes, %: 46%
[2]; olanzapine 15 mg
  CGI-I responder rate (subjects much or very much improved) at Endpoint: 46%

## Cc1nc2n(c(=O)c1CCN1CCC(c3noc4cc(F)ccc34)CC1)CCCC2 [Risperidone, risperidone, reference compound]
[3]; Week 1
  Change from Baseline in BPRS Total Score, Mean (SD): −5.5 (6.3)
  Change from Baseline in BPRS Total Score, Median: −5
[3]; Week 2
  Change from Baseline in BPRS Total Score, Mean (SD): −9.1 (8.5)
  Change from Baseline in BPRS Total Score, Median: −9
[3]; Week 3
  Change from Baseline in BPRS Total Score, Mean (SD): −10.7 (9.4)
  Change from Baseline in BPRS Total Score, Median: −11
[3]; Week 4
  Change from Baseline in BPRS Total Score, Median: −13
[3]; Week 6/Endpoint
  Change from Baseline in BPRS Total Score, Mean (SD): −12.2 (11.7)
  Change from Baseline in BPRS Total Score, Median: −13
[3]; risperidone 6 mg, ITT
  mean change (SD) from Baseline to Endpoint in BPRS total score: −12.2 (11.7)
[4]; Endpoint LOCF
  Change from Baseline in PANSS Negative Subscale Score, Mean (S.D.): −3.6 (4.6)
  Change from Baseline in PANSS Negative Subscale Score, Median: −3
[4]; Week 1, LOCF
  Change from Baseline in PANSS Negative Subscale Score, Mean (S.D.): −2.1 (3.5)
  Change from Baseline in PANSS Negative Subscale Score, Median: −1
[4]; Week 2, LOCF
  Change from Baseline in PANSS Negative Subscale Score, Mean (S.D.): −3.0 (4.2)
  Change from Baseline in PANSS Negative Subscale Score, Median: −3
[4]; Week 3, LOCF
  Change from Baseline in PANSS Negative Subscale Score, Mean (S.D.): −3.5 (4.2)
  Change from Baseline in PANSS Negative Subscale Score, Median: −3
[4]; Week 4, LOCF
  Change from Baseline in PANSS Negative Subscale Score, Mean (S.D.): −3.2 (4.3)
  Change from Baseline in PANSS Negative Subscale Score, Median: −3
[5]; Endpoint LOCF
  Change from Baseline in BPRS Total Score, Mean (S.D.): −9.2 (8.9)
  Change from Baseline in BPRS Total Score, Median: −9
[5]; Week 1, LOCF
  Change from Baseline in BPRS Total Score, Mean (S.D.): −4.6 (6.5)
  Change from Baseline in BPRS Total Score, Median: −3
[5]; Week 2, LOCF
  Change from Baseline in BPRS Total Score, Mean (S.D.): −7.6 (8.4)
  Change from Baseline in BPRS Total Score, Median: −7
[5]; Week 3, LOCF
  Change from Baseline in BPRS Total Score, Mean (S.D.): −9.1 (8.4)
  Change from Baseline in BPRS Total Score, Median: −9
[5]; Week 4, LOCF
  Change from Baseline in BPRS Total Score, Mean (S.D.): −8.6 (9.0)
  Change from Baseline in BPRS Total Score, Median: −7
[6]
  mean weight change (increase): 4.8 lb
  subjects who decreased their weight by ≧7%: No subjects
  subjects who increased their weight by ≧7%: 13%
